Reference: patent US20080255153A1, “New compounds” (BIOVITRUM AB (publ), priority 2007, published 2008)

Molecular target: T1, stearoyl-CoA desaturase (SCD) (Rattus norvegicus, UniProt P07308)
T1 construct: 0.032 mg/ml rat liver microsomes (total protein content); from tissue
T1 sequence (P07308 1-358): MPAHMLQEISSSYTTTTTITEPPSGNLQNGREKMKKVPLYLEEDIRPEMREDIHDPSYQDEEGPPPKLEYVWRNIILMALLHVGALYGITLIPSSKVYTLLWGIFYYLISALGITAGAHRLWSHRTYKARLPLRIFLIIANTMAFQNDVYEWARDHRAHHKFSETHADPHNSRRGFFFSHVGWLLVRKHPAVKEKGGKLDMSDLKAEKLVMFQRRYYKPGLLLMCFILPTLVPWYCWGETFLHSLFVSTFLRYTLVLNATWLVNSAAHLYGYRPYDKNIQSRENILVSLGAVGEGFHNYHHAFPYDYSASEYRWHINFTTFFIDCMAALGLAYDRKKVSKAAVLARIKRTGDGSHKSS
Assay: Tritium release screening assay for inhibition of stearoyl-CoA desaturase activity in rat liver microsomes (96- or 384-well)
Assay type: biochemical
Settings: [3H]-stearoyl-CoA, 20 min pre-incubation, 20 min reaction
Description: The tritium release assay for the measurement of SCD activity is thus well documented in the literature. Descriptions on how these finding have been used to produce standard screening assays in 96-well plates are also available [Brownlie, Hayden, Attie, Ntambi, Gray-Keller, & Miyazaki (2001) WO 01/62954; Wu, Gallipoli, Gallagher, & Gardell (2004) WO 2004/04776]. We have adopted the tritium release assay to a 384-well format to improve throughput even further.
Microsomal preparations were prepared from the livers of Male Sprague-Dawley rats that had been fasted and then refed a low fat/high carbohydrate diet. The preparation of microsomes was adopted from Seifried and Gaylor [Seifried & Gaylor (1976) J. Biol. Chem. 251, 7468-7473]. Confirmation of compound activity on human material was made based on microsomal preparations from HepG2 cells. All other reagents were purchased from commercial sources. The assay was run in 96 or 384-well microtiter plates by consecutive additions of a test compound solution, a microsomal preparation solution and a substrate containing solution. The final concentrations of all reagents in a total assay volume of 40 μl per well (in the 384-well plate format) were: • 0.11 μM [^3H]-stearoyl-CoA • 50 nM stearoyl-CoA • 0.032 mg/ml rat liver microsomes (total protein content) • 2 mM NADH • 220 mM sucrose • 44 mM NaH2PO4 pH adjusted to 6.8 • 130 mM KCl • 1.3 mM GSH • 0.05 mM CoA • 0.1% BSA • 0.29 mM nicotine amide • 15 mM NaF • 1.1 mM ATP • 4.9 mM MgCl2 • 0.002% Tween-20 • A test compound at various concentrations (which also adds 0.5-2% DMSO to the final solution)
The test compounds were pre-incubated for 20 minutes with the microsomal preparation prior to starting the reaction by the addition of substrate. The enzymatic reaction was allowed to proceed for 20 minutes and then optionally slowed by an addition of 40 μl of a 2% DMSO solution in water containing a known inhibitor of SCD activity. The solutions were mixed and then 70 μl of the total 80 μl were transferred to a filter plate containing predispensed activated charcoal. The plate was then centrifuged and the filtrate collected in a collector plate to which 40 μl of Optiphase Supermix was added per well. Following an 18 h equilibration time at room temperature the plate was read in a Trilux MicroBeta (two minutes counting time per well). […] The inhibitory potency or IC50 values of test compounds on SCD activity were defined by applying the same assay in the presence of sub-nM to sub-mM compound concentrations.

Row | IC50 [µM] | SMILES
1 | 0.027 | O=CNCCNC(=O)c1cnn2cc(Cc3ccc(Br)cc3)cnc12 [Example 25, 6-(4-Bromobenzyl)-N-[2-(formylamino)ethyl]pyrazolo[1,5-α]pyrimidine-3-carboxamide]
2 | 0.14 | Cc1nc2c(C(=O)NCCOCCO)cnn2cc1Cc1ccc(F)c(OC(F)(F)F)c1 [Example 38, 6-[4-Fluoro-3-(trifluoromethoxy)benzyl]-N-[2-(2-hydroxyethoxy)ethyl]-5-methyl-pyrazolo[1,5-α]pyrimidine-3-carboxamide]
3 | 0.61 | Cc1c(Cc2ccccc2)cnc2c(C(=O)NCCOCCO)cnn12 [Example 39, 6-Benzyl-N-[2-(2-hydroxyethoxy)ethyl]-7-methylpyrazolo[1,5-α]pyrimidine-3-carboxamide]
4 | 0.091 | NC(=O)COC(=O)c1cnn2cc(Cc3ccc(F)c(C(F)(F)F)c3)cnc12 [Example 48, 2-Amino-2-oxoethyl 6-[4-fluoro-3-(trifluoromethyl)benzyl]pyrazolo[1,5-α]pyrimidine-3-carboxylate]
5 | 0.48 | NC(=O)CNC(=O)c1cnn2cc(Sc3cccc(C(F)(F)F)c3)cnc12 [Example 50, N-(2-Amino-2-oxoethyl)-6-{[3-(trifluoromethyl)phenyl]thio}pyrazolo[1,5-α]-pyrimidine-3-carboxamide]
6 | 0.022 | NC(=O)CNC(=O)c1cnn2cc(Cc3cccc(Cl)c3Cl)cnc12 [Example 56, N-(2-Amino-2-oxoethyl)-6-(2,3-dichlorobenzyl)pyrazolo[1,5-α]pyrimidine-3-carboxamide]
